Measurements from patent publication US4202967A, “N,N-pentamethylene derivatives of daunomycin and adriamycin” (SRI International, priority 1978, dated 1980).
Structures can show the parent of a compound that is named as a salt. Where two headings read alike, the source gives them in different places.

Assays:
[1] = tested on: RNA synthesis in L1210 cells; experiment: Inhibition of RNA synthesis (incorporation of tritiated 3H-uridine) in cultured L1210 cells; assay type: cell-based; conditions: for Nucleic Acid Syn Inhibn, ED50 ratio DNA/RNA: ED50 DNA divided by ED50 RNA; for IC50: Mus musculus
Experimental: (§1) Also presented in the table are the results of in vitro tests using cultured L1210 cells in which the activity of each chemical enumerated in the following table is presented in relation to its potency as an inhibitor of nucleic acid synthesis. Data for daunomycin and adriamycin are also included in the table for the sake of comparison. More specifically, the inhibition of the synthesis of DNA and RNA by each compound was measured as a function of its activity in inhibiting incorporation of tritiated ^3 H-thymidine or ^3 H-uridine into DNA and RNA, respectively. ED50 represents the concentration, in micromolar units, which inhibits incorporation of 50% of tritiated ^3 H-thymidine or ^3 H-uridine into the DNA and RNA of the test cells.
(§2) ^a ΔTm and Ed50 values were determined by the method of G.
(§3) Tong, W. W. Lee, D. R. Black, and D. W. Henry, J. Med. Chem., 19, 395
(§4) (1976), except that the drugs were initially dissolved in a volume of DMS
(§5) the assay medium. This modification greatly aided solubilization and did
(§6) not affect assay results, according to extensive control experiments.

[2] = tested on: P388 lymphocytic leukemia; experiment: Antitumor activity in mice (P388, qd 5,9,13); assay type: in vivo; conditions: ip; for T/C (P388, qd 5,9,13): at optimal dose, days 5, 9, 13, ratio of average survival times treated/untreated, active if T/C ≥ 120; for Opt. Dose (P388, qd 5,9,13): days 5, 9, 13
Experimental: (§7) As indicated above, the compounds of the present invention have improved antitumor activity. This is evidenced by the data given below. In one operation, conducted in accordance with Protocol 1200 set forth in Cancer Chemotherapy Reports, National Cancer Institute, Vol. 3, No. 2, Part 3, September 1972, healthy mice were inoculated i.p. with Limphocytic Leukemia P-388 ascitic fluid. The inoculated mice were then treated i.p. for the succeeding 9 day period with varying amounts of the test chemicals of Example 2 while others of the mice were similarly inoculated with adrimycin hydrochloride and with daunomycin hydrochloride, the dosage pattern being set forth in the table given below. The average survival times of the treated mice was then determined, as was that of the control mice, which were inoculated with the ascitic fluid but given no treatment with the test chemicals. Presented in the following table under the T/C column headings are data obtained by dividing the survival time of the treated mice with that of the control mice, the quotient so obtained being multiplied by 100.
(§8) ^b Assays arranged through Drug Research and Development Program,
(§9) Division of Cancer Treatment, National Cancer Institute. BDF or CDF mice
(§10) are injected ip with […] P388 lymphocytic leukemia cells on Day 0
(§11) and are treated ip on Days 1-9 or days 5, 9, 13 with the specified drug
(§12) dose. For detailed protocols see R. I. Geran, N. H. Greenberg, M. M.
(§13) MacDonald, A. M. Schumacher, and B. J. Abbott, Cancer Chemother. Rep.,
(§14) ^c Ratio of average survival times of treated mice to untreated
(§15) controls in percent. The average survival time of untreated controls is
(§16) approximately 11 days. Activity is defined as values of T/C ≥ 120
(§17) in the qd 5, 9, 13 protocol and T/C ≥ 125 in the qd 1-9 protocol.

ΔTm = assay type: binding; conditions: drugs initially dissolved in DMSO; final DMSO 5%
Experimental: as §2, §3, §4, §5, §6

[3] = tested on: DNA synthesis in L1210 cells; experiment: Inhibition of DNA synthesis (incorporation of tritiated 3H-thymidine) in cultured L1210 cells; assay type: cell-based; conditions: Mus musculus
Experimental: as §1, §2, §3, §4, §5, §6

[4] = tested on: P388 lymphocytic leukemia; experiment: Antitumor activity in mice (P388, qd 1-9); assay type: in vivo; conditions: ip; for T/C (P388, qd 1-9): at optimal dose, days 1-9, ratio of average survival times treated/untreated, active if T/C ≥ 125; for Opt. Dose (P388, qd 1-9): days 1-9
Experimental: as §7, §8, §9, §10, §11, §12, §13, §14, §15, §16, §17

[5] = L1210, read-out: Nucleic Acid Syn Inhibn, ED50 RNA
[6] = L1210, read-out: Nucleic Acid Syn Inhibn, ED50 DNA

## COc1cccc2c1C(=O)c1c(O)c3c(c(O)c1C2=O)C[C@@](O)(C(=O)CO)C[C@@H]3O[C@H]1C[C@H](N)[C@H](O)[C@H](C)O1 [Adriamycin hydrochloride]
[1]; L1210 cells
  Nucleic Acid Syn Inhibn, ED50 ratio DNA/RNA: 2.6
[1]; [5]
  IC50: 580 nM
[2]
  T/C (P388, qd 5,9,13): 159%
  Opt. Dose (P388, qd 5,9,13): 8 mg/kg
ΔTm
  ΔTm: 13.4 °C
[3]; [6]
  IC50: 1500 nM
[4]
  T/C (P388, qd 1-9): 197%
  Opt. Dose (P388, qd 1-9): 0.78 mg/kg

## COc1cccc2c1C(=O)c1c(O)c3c(c(O)c1C2=O)C[C@@](O)(C(O)CO)C[C@@H]3O[C@H]1C[C@H](N2CCCCC2)[C@H](O)[C@H](C)O1 (stereo partly drawn) [N,N-Pentamethylene-13-dihydroadriamycin]
[1]; L1210 cells
  Nucleic Acid Syn Inhibn, ED50 ratio DNA/RNA: 7.2
[1]; [5]
  IC50: 100 nM
[2]
  T/C (P388, qd 5,9,13): 143%
  Opt. Dose (P388, qd 5,9,13): 18 mg/kg
ΔTm
  ΔTm: 12.5 °C
[3]; [6]
  IC50: 720 nM
[4]
  T/C (P388, qd 1-9): 157%
  Opt. Dose (P388, qd 1-9): 1.56 mg/kg

## COc1cccc2c1C(=O)c1c(O)c3c(c(O)c1C2=O)C[C@@](O)(C(=O)CO)C[C@@H]3O[C@H]1C[C@H](N2CCCCC2)[C@H](O)[C@H](C)O1 [N,N-Pentamethyleneadriamycin]
[1]; L1210 cells
  Nucleic Acid Syn Inhibn, ED50 ratio DNA/RNA: 17.5
[1]; L1210 cells, 3H-uridine incorporation, 50% inhibition, final DMSO 1%, read-out: Nucleic Acid Syn Inhibn, ED50 RNA
  IC50: 40 nM
[2]
  T/C (P388, qd 5,9,13): 155%
  Opt. Dose (P388, qd 5,9,13): 9.4 mg/kg
ΔTm
  ΔTm: 15.4 °C
[3]; L1210 cells, 3H-thymidine incorporation, 50% inhibition, final DMSO 1%, read-out: Nucleic Acid Syn Inhibn, ED50 DNA
  IC50: 700 nM
[4]
  T/C (P388, qd 1-9): 190%
  Opt. Dose (P388, qd 1-9): 3.13 mg/kg

## COc1cccc2c1C(=O)c1c(O)c3c(c(O)c1C2=O)C[C@@](O)(C(C)=O)C[C@@H]3O[C@H]1C[C@H](N)[C@H](O)[C@H](C)O1 [Daunomycin hydrochloride]
[1]; [5]
  IC50: 330 nM
[2]
  T/C (P388, qd 5,9,13): 132%
  Opt. Dose (P388, qd 5,9,13): 8 mg/kg
[3]; [6]
  IC50: 660 nM
[4]
  T/C (P388, qd 1-9): 160%
  Opt. Dose (P388, qd 1-9): 0.78 mg/kg
